Here are results for eight molecules from US20250340577A1, “BETA-LACTOMASE INHIBITORS AND USES THEREOF” (Case Western Reserve University, priority 2021, published 2025).

Common to all, as to format: cell-based
In test [1] the test system is A. baumannii 0057. Nature of the test: MIC with cefepime, agar microdilution, CLSI. Particulars: compound fixed at 4 ug/ml; ADC-7. How it is done:
(§1) Minimum inhibitory concentration (MIC) of MB076 and derivatives (PCF_038-043) in combination with cefepime.
(§2) MICs were determined by the Agar microdilution method, following CLSI guidelines. Compounds were tested at fixed concentration of 4 ug/ml in combination with cefepime.

Test [2] relates to E. coli 29838. Briefly: MIC with cefepime, agar microdilution, CLSI. The settings on record: compound fixed at 4 ug/ml; CTX-M-14, TEM-1. The procedure:
as §1, §2

Test [3] deals with E. coli ATCC BAA202. Briefly: MIC with cefepime, agar microdilution, CLSI. The settings on record: compound fixed at 4 ug/ml; SHV-1. How it is done:
as §1, §2

Test [4] has as its system E. coli DH10B pBC-SK P99. Nature of the test: MIC with cefepime, agar microdilution, CLSI. The settings on record: compound fixed at 4 ug/ml. How it is done: as §1, §2
For test [5], the system named is E. coli DH10B pBC-SK PDC-3. Nature of the test: MIC with cefepime, agar microdilution, CLSI. The settings on record: compound fixed at 4 ug/ml. The procedure:
as §1, §2

Test [6] concerns E. coli DH10B pBC-SK SHV-2. Nature of the test: MIC with cefepime, agar microdilution, CLSI. The settings on record: compound fixed at 4 ug/ml. The procedure: as §1, §2
Test [7] has as its system E. coli DH10B pBC-SK control. Briefly: MIC with cefepime, agar microdilution, CLSI. Particulars: compound fixed at 4 ug/ml; B-lactamases none. How it is done: as §1, §2
For test [8], the system named is E. coli pLTCF1. Briefly: MIC with cefepime, agar microdilution, CLSI. The settings on record: compound fixed at 4 ug/ml; CTX-M group 9. The procedure:
as §1, §2

Test [9] relates to E. coli pLTCF2. Briefly: MIC with cefepime, agar microdilution, CLSI. Particulars: compound fixed at 4 ug/ml. How it is done:
as §1, §2

Test [10] concerns K. pneumoniae 255. Briefly: MIC with cefepime, agar microdilution, CLSI. The settings on record: compound fixed at 4 ug/ml; TEM-1, SHV-2. The procedure:
as §1, §2

The test system of test [11] is K. pneumoniae 266. Briefly: MIC with cefepime, agar microdilution, CLSI. Particulars: compound fixed at 4 ug/ml; SHV-5. The procedure: as §1, §2
Test [12] has as its system K. pneumoniae 34700. Briefly: MIC with cefepime, agar microdilution, CLSI. Particulars: compound fixed at 4 ug/ml; CTX-M-15, SHV, TEM. How it is done: as §1, §2
The test system of test [13] is K. pneumoniae 427. Nature of the test: MIC with cefepime, agar microdilution, CLSI. The settings on record: compound fixed at 4 ug/ml; TEM-1, SHV-1, CTX-M-3. The procedure: as §1, §2
Test [14] deals with K. pneumoniae ST17. Nature of the test: MIC with cefepime, agar microdilution, CLSI. Particulars: compound fixed at 4 ug/ml; KPC-2, TEM, SHV, CTX-M-Group 1. How it is done: as §1, §2
The subject of test [15] is K. pneumoniae ST258 B5. Nature of the test: MIC with cefepime, agar microdilution, CLSI. Particulars: compound fixed at 4 ug/ml; KPC-2. The procedure:
as §1, §2

The subject of test [16] is K. pneumoniae ST258 C3. Nature of the test: MIC with cefepime, agar microdilution, CLSI. The settings on record: compound fixed at 4 ug/ml; KPC-3. The procedure:
as §1, §2

In test [17] the test system is K. pneumoniae original KPC-2. Nature of the test: MIC with cefepime, agar microdilution, CLSI. Particulars: compound fixed at 4 ug/ml. How it is done:
as §1, §2

Test [18] deals with Klebsiella pneumonia/BAA-1705. Nature of the test: MIC of MB076 alone or in combination with cefepime or meropenem. Particulars: Klebsiella pneumoniae, BAA1705. The procedure: as §2
The test system of test [19] is Klebsiella pneumonia/FDA-CDC AR-BANK#0097. Described as above. Particulars: Klebsiella pneumoniae. The procedure:
as §2

In test [20] the test system is Klebsiella pneumonia/FDA-CDC AR-BANK#0098. The test is described as above. Particulars: Klebsiella pneumoniae. How it is done: as §2
In test [21] the test system is E. coli DH10B pBC-SK KPC-2. Nature of the test: MIC with cefepime, agar microdilution, CLSI. Particulars: compound fixed at 4 ug/ml. The procedure:
as §1, §2

For test [22], the system named is K. pneumoniae 253. Briefly: MIC with cefepime, agar microdilution, CLSI. Particulars: compound fixed at 4 ug/ml; TEM-12, SHV-5, CTX-M. How it is done: as §1, §2

Read-outs that look alike come from different tables or passages of the source.

With `O=C(CSc1ccccn1)N[C@@H](Cn1cc(C(=O)O)nn1)B(O)O` [PCF_042], the MIC of cefepime in combination with compound is 64 µg/mL in test [1]; below 0.25 µg/mL in [2]; below 0.25 µg/mL in [3]; below 0.25 µg/mL in test [4]; below 0.25 µg/mL in [5]; below 0.25 µg/mL in test [6]. Also, the MIC of cefepime in combination with compound in test [7] was below 0.25 µg/mL; in test [8] it was below 0.25 µg/mL; in test [9], below 0.25 µg/mL; in test [10], 2 µg/mL; in [11], below 0.25 µg/mL; in [12], 1 µg/mL. Also, the MIC of cefepime in combination with compound is below 0.25 µg/mL in [13]; 32 µg/mL in test [14]; 16 µg/mL in [15]; 0.5 µg/mL in test [16]; below 0.25 µg/mL in [17].

For orientation: MIC means the least concentration at which growth counts as inhibited. As for `C[C@@H](O)[C@H]1C(=O)N2C(C(=O)O)=C(S[C@@H]3CN[C@H](C(=O)N(C)C)C3)[C@H](C)[C@H]12` [Meropenem, meropenem], the minimal inhibitory concentration (MIC) is 32 µg/mL in [18] (single agent, read-out: MIC); above 32 µg/mL in [19] (single agent, read-out: MIC); 16 µg/mL in test [20] (single agent, read-out: MIC).

`CN(C)c1cc(NC(=O)CNC(C)(C)C)c(O)c2c1C[C@H]1C[C@H]3[C@H](N(C)C)C(O)=C(C(N)=O)C(=O)[C@@]3(O)C(O)=C1C2=O` [Tigecycline]: the results for the minimum inhibitory concentration (MIC) in [18], in test [19] and in [20] were 2 µg/mL, 4 µg/mL and 1 µg/mL, respectively.

For the molecule `O=C(CNn1cnnc1S)N[C@@H](Cn1cc(C(=O)O)nn1)B(O)O` [PCF_039], the MIC of cefepime in combination with compound in test [1] is 32 µg/mL; in test [2] it was below 0.25 µg/mL; in test [3] it was below 0.25 µg/mL; in test [21] it was below 0.25 µg/mL; in [4] it was below 0.25 µg/mL; in test [5] it was below 0.25 µg/mL. Also, the MIC of cefepime in combination with compound in [6] was below 0.25 µg/mL; in test [7], below 0.25 µg/mL; in test [8], below 0.25 µg/mL; in [9] it was below 0.25 µg/mL; in test [22] it was 1 µg/mL; in [10], 2 µg/mL. Further, the MIC of cefepime in combination with compound in test [11] is below 0.25 µg/mL; in [12], 1 µg/mL; in [13], below 0.25 µg/mL; in [14], 16 µg/mL; in test [15] it was 4 µg/mL; in [16], below 0.25 µg/mL. Moreover, the MIC of cefepime in combination with compound in test [17] was 0.5 µg/mL.

Take `O=C(CNc1nnc(S)s1)N[C@@H](Cn1cc(C(=O)O)nn1)B(O)O` [PCF_041]: the MIC of cefepime in combination with compound is 64 µg/mL in test [1]; below 0.25 µg/mL in test [2]; 0.5 µg/mL in [3]; below 0.25 µg/mL in [21]; below 0.25 µg/mL in [4]; below 0.25 µg/mL in test [5]. Besides, the MIC of cefepime in combination with compound is below 0.25 µg/mL in [6]; below 0.25 µg/mL in [7]; 0.5 µg/mL in test [8]; below 0.25 µg/mL in test [9]; 2 µg/mL in test [22]; below 0.25 µg/mL in [11]. Also, the MIC of cefepime in combination with compound stood at 2 µg/mL in test [12]; 0.5 µg/mL in test [13]; 16 µg/mL in [14]; 16 µg/mL in [15]; 1 µg/mL in [16]; 0.5 µg/mL in [17].

On to `Cc1nnc(SCC(=O)N[C@@H](Cn2cc(C(=O)O)nn2)B(O)O)[nH]1` [PCF_038], for which the MIC of cefepime in combination with compound in test [1] was 64 µg/mL; in test [2], below 0.25 µg/mL; in [3], 0.5 µg/mL; in test [21], below 0.25 µg/mL; in test [4], below 0.25 µg/mL; in [5], below 0.25 µg/mL. Moreover, the MIC of cefepime in combination with compound in test [6] was below 0.25 µg/mL; in [7], below 0.25 µg/mL; in [8], below 0.25 µg/mL; in test [9] it was below 0.25 µg/mL; in test [22], 2 µg/mL; in [10], 2 µg/mL. The MIC of cefepime in combination with compound in test [11] is below 0.25 µg/mL; in [12] it was 1 µg/mL; in test [13], below 0.25 µg/mL; in [14], 32 µg/mL; in test [15], 16 µg/mL; in [16], 0.5 µg/mL. In addition, the MIC of cefepime in combination with compound in test [17] was below 0.25 µg/mL.

For the molecule `O=C(CS)N[C@@H](Cn1cc(C(=O)O)nn1)B(O)O` [PCF_043], the MIC of cefepime in combination with compound in test [1] was 32 µg/mL; in [2] it was 0.5 µg/mL; in test [3], 1 µg/mL; in test [21], 1 µg/mL; in [4], 1 µg/mL; in test [5] it was below 0.25 µg/mL. Besides, the MIC of cefepime in combination with compound is below 0.25 µg/mL in test [6]; below 0.25 µg/mL in test [7]; 1 µg/mL in [8]; below 0.25 µg/mL in test [9]; 4 µg/mL in test [22]; 4 µg/mL in test [10]. The MIC of cefepime in combination with compound in test [11] is below 0.25 µg/mL; in test [12] it was 4 µg/mL; in test [13], 1 µg/mL; in [14] it was 32 µg/mL; in test [15] it was 16 µg/mL; in test [16], 2 µg/mL. Further, the MIC of cefepime in combination with compound in test [17] came to 1 µg/mL.

As to `O=C(CSC1=NCCS1)NC(Cn1cc(C(=O)O)nn1)B(O)O` (stereo not drawn) [PCF_040], the MIC of cefepime in combination with compound in [1] was 32 µg/mL; in [2] it was 0.5 µg/mL; in [3], 2 µg/mL; in test [21], 1 µg/mL; in [4], below 0.25 µg/mL; in [5], below 0.25 µg/mL. Besides, the MIC of cefepime in combination with compound was 0.5 µg/mL in [6]; below 0.25 µg/mL in test [7]; 0.5 µg/mL in [8]; below 0.25 µg/mL in test [9]; 4 µg/mL in test [22]; 2 µg/mL in test [10]. Also, the MIC of cefepime in combination with compound in [11] is below 0.25 µg/mL; in [12], 4 µg/mL; in test [13] it was 1 µg/mL; in test [14] it was 32 µg/mL; in test [15], 32 µg/mL; in test [16] it was 2 µg/mL. The MIC of cefepime in combination with compound in test [17] amounted to 2 µg/mL.
